Key:
[1] = Hygroscopicity of the crystalline form; type: physicochemical; details: crystalline solid form
[2] = Polymorphic stability at up to 100% relative humidity at room temperature; type: physicochemical

| Substance | hygroscopicity [1] | time over which the form is polymorphically stable [2] |
| --- | --- | --- |
| Belumosudil Besylate [Form BS1] | non-hygroscopic | at least 7 days |
| Belumosudil Mesylate [Form M1] | non-hygroscopic | at least 7 days |
| Belumosudil Tosylate [Form T1] | non-hygroscopic | at least 7 days |

— patent US12157729B2, “Solid state forms of Belumosudil and Belumosudil salts” (TEVA PHARMACEUTICALS INTERNATIONAL GMBH, priority 2020, dated 2024)
